Laboratory results reported in PMC6920949, “Muscle to Brain Partitioning as Measure of Transporter-Mediated Efflux at the Rat Blood–Brain Barrier and Its Implementation into Compound Optimization in Drug Discovery” (Pharmaceutics, 2019).

Assays:
[1] = rat, in vivo
Method: (§1) Animal experiments were performed in male rats of different strains (Han Wistar, Sprague Dawley, Lister Hooded, Long-Evans, supplied by commercial breeders, typically Charles River, Sulzfeld, Germany or Janvier Labs, Saint-Berthevin Cedex, France). Only two studies were done in female animals. Typically three animals were used per experiment. […] Compounds were dosed orally, intravenously, subcutaneously, or intraperitoneally. For tissue sampling animals were anaesthetized with Ketamin/Inactin. After dissection of the cisterna magna, approximately 50 µL CSF was collected via a 0.4-mm cannula. Blood was collected from the retroorbital plexus into K3EDTA coated vials (Sarstedt, Nümbrecht, Germany) and plasma was collected by centrifugation for 5 min at approximately 5000 rpm. Animals were exsanguinated via the vena cava. The femoral muscle was prepared. A small piece (approximately 0.2–0.5 g) was excised, rinsed in cold physiological NaCl, and the remaining fat and superficial vessels were removed. For brain isolation, skin and muscle of head and neck were removed. The cranium was opened with a bone trimmer by one central and two lateral incisions. […]
(§2) Prior to bioanalysis plasma samples and dialysates were spiked with internal standard solution and diluted with acetonitrile for protein precipitation. […] Quantification was performed using external calibration.

[2] = design: method as in PMID 21934030; conditions: rat, brain slice method; cited from earlier work
[3] = design: method as in PMID 28880093; conditions: dog cerebrum, cerebellum, brain stem; cited from earlier work
[4] = Kp,br/mu: brain to skeletal muscle partitioning, tissue distribution study in rats; conditions: rat, brain and skeletal (femoral) muscle
Method: as §1, §2

[5] = Kp,uu,brain by brain homogenate method; format: in vivo; conditions: brain and plasma (unbound), rat, Table 4, read-out: Kp,uu,brain(hom) (This publication)
From the text: Under steady-state conditions, Kp,uu,brain defines the ratio between the unbound drug concentration in brain (Cu,brain), i.e., the interstitial fluid (ISF) and the unbound drug concentration in plasma(Cu,plasma) (Equation (1)). Kp,uu,brain = Cu,brain/Cu,plasma(1) Using microdialysis, the concentrations in brain ISF can be determined. […] Kp,uu,brain = Cu,brain/Cu,plasma = (Cbrain × fu,brain)/(Cplasma × fu,plasma) = Kp,brain × (fu,brain/fu,plasma)(2) where Cplasma and Cbrain are the plasma and brain concentration, respectively. Kp is the partition coefficient of total drug in brain and plasma:Kp,brain = Cbrain/Cplasma(3)
Animal experiments were performed in male rats of different strains (Han Wistar, Sprague Dawley, Lister Hooded, Long-Evans, supplied by commercial breeders, typically Charles River, Sulzfeld, Germany or Janvier Labs, Saint-Berthevin Cedex, France). Only two studies were done in female animals. Typically three animals were used per experiment. […] Compounds were dosed orally, intravenously, subcutaneously, or intraperitoneally. […]
Binding of research compounds to plasma protein and tissue homogenates was determined using the equilibrium dialysis method as described previously [9, 15]. […] Unbound plasma concentration (fu,plasma) was calculated as:fu,plasma = (Cplasma − Cbuffer)/Cplasma,(7) where Cplasma and Cbuffer are the plasma and buffer concentration, respectively.

[6] = compounds without blood-brain barrier efflux; cited from earlier work

NC(=O)N1c2ccccc2C=Cc2ccccc21 [Carbamazapine]
Kp,br/mu (This publication) [1]: 1.44 | Kp,uu,brain (Literature) [2]: 0.771

C=C[C@H]1C[N@@]2CC[C@H]1C[C@@H]2[C@@H](O)c1ccnc2ccc(OC)cc12 [Quinidine]
effect of up to 5-fold P-gp and BCRP expression differences between brain regions on Kp,brain [3]: did not affect | Kp [4]: 0.056 | Kp uu [5]: 0.0276

Cc1nnc2n1-c1sc(CCC(=O)N3CCOCC3)cc1C(c1ccccc1Cl)=NC2 [apafant]
effect of up to 5-fold P-gp and BCRP expression differences between brain regions on Kp,brain [3]: did not affect

Cc1ncc2n1-c1ccc(Cl)cc1C(c1ccccc1F)=NC2 [midazolam]
distribution into brain and skeletal muscle [6]: very similar distributions into brain and skeletal muscle
